Test system: P12-Ichikawa
Assay: cell viability relative to DMSO control; higher = less cytotoxic
Conditions: 48 h
How it was run: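 Viability is a per-plate percentage relative to DMSO wells, with cell-free wells as background. CellTiter-Glo One luminescence was read after 48 h at 37°C on 1536-well plates (5 μl) of NOMO1 or SEM (500 cells/well) or P12-Ichikawa (1000 cells/well) leukemia cells. The cells had been adapted for at least four passages in each medium and pin-dosed with library compounds in DMSO from 47 μM to 0.79 nM in 11 threefold steps.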

[1] = HPLM + 10% dialyzed FBS, 0.000781 µM
[2] = HPLM + 10% dialyzed FBS, 0.00234 µM
[3] = HPLM + 10% dialyzed FBS, 0.00702 µM
[4] = HPLM + 10% dialyzed FBS, 0.0211 µM
[5] = HPLM + 10% dialyzed FBS, 0.0632 µM
[6] = HPLM + 10% dialyzed FBS, 0.19 µM
[7] = HPLM + 10% dialyzed FBS, 0.569 µM
[8] = HPLM + 10% dialyzed FBS, 1.71 µM
[9] = HPLM + 10% dialyzed FBS, 5.12 µM
[10] = HPLM + 10% dialyzed FBS, 15.4 µM
[11] = HPLM + 10% dialyzed FBS, 46.1 µM
[12] = RPMI 5 mM glucose + 10% FBS, 0.000781 µM
[13] = RPMI 5 mM glucose + 10% FBS, 0.00234 µM
[14] = RPMI 5 mM glucose + 10% FBS, 0.00702 µM
[15] = RPMI 5 mM glucose + 10% FBS, 0.0211 µM
[16] = RPMI 5 mM glucose + 10% FBS, 0.0632 µM
[17] = RPMI 5 mM glucose + 10% FBS, 0.19 µM
[18] = RPMI 5 mM glucose + 10% FBS, 0.569 µM
[19] = RPMI 5 mM glucose + 10% FBS, 1.71 µM
[20] = RPMI 5 mM glucose + 10% FBS, 5.12 µM
[21] = RPMI 5 mM glucose + 10% FBS, 15.4 µM
[22] = RPMI 5 mM glucose + 10% FBS, 46.1 µM
[23] = RPMI 5 mM glucose + 10% dialyzed FBS, 0.000781 µM
[24] = RPMI 5 mM glucose + 10% dialyzed FBS, 0.00234 µM
[25] = RPMI 5 mM glucose + 10% dialyzed FBS, 0.00702 µM
[26] = RPMI 5 mM glucose + 10% dialyzed FBS, 0.0211 µM
[27] = RPMI 5 mM glucose + 10% dialyzed FBS, 0.0632 µM
[28] = RPMI 5 mM glucose + 10% dialyzed FBS, 0.19 µM
[29] = RPMI 5 mM glucose + 10% dialyzed FBS, 0.569 µM
[30] = RPMI 5 mM glucose + 10% dialyzed FBS, 1.71 µM
[31] = RPMI 5 mM glucose + 10% dialyzed FBS, 5.12 µM
[32] = RPMI 5 mM glucose + 10% dialyzed FBS, 15.4 µM
[33] = RPMI 5 mM glucose + 10% dialyzed FBS, 46.1 µM

Compound | cell viability [1] [%] | cell viability [2] [%] | cell viability [3] [%] | cell viability [4] [%] | cell viability [5] [%] | cell viability [6] [%] | cell viability [7] [%] | cell viability [8] [%] | cell viability [9] [%] | cell viability [10] [%] | cell viability [11] [%] | cell viability [12] [%] | cell viability [13] [%] | cell viability [14] [%] | cell viability [15] [%] | cell viability [16] [%] | cell viability [17] [%] | cell viability [18] [%] | cell viability [19] [%] | cell viability [20] [%] | cell viability [21] [%] | cell viability [22] [%] | cell viability [23] [%] | cell viability [24] [%] | cell viability [25] [%] | cell viability [26] [%] | cell viability [27] [%] | cell viability [28] [%] | cell viability [29] [%] | cell viability [30] [%] | cell viability [31] [%] | cell viability [32] [%] | cell viability [33] [%]
Cn1cc(-c2ccc3nnc(C(F)(F)c4ccc5ncccc5c4)n3n2)cn1 | 116 | 117 | 117 | 116 | 113 | 115 | 109 | 108 | 101 | 95.8 | 82.9 | 114 | 117 | 117 | 124 | 109 | 113 | 113 | 106 | 107 | 101 | 81.7 | 119 | 112 | 120 | 118 | 113 | 119 | 118 | 112 | 101 | 102 | 85.6
CC(=O)N1CCN(c2ccc(OCc3nn(C)c(C)c3-c3cccc4c(CCCOc5cccc6ccccc56)c(C(=O)O)n(Cc5cccnc5)c34)cc2)CC1 | 108 | 116 | 123 | 122 | 120 | 119 | 124 | 122 | 108 | 31.8 | 9.79 | 98.4 | 118 | 123 | 123 | 124 | 125 | 137 | 135 | 123 | 28.2 | 11 | 107 | 124 | 121 | 128 | 128 | 123 | 136 | 129 | 134 | 91.1 | 25.5
O=C(Nc1cccc(Nc2ncc(Br)c(NCCc3cnc[nH]3)n2)c1)N1CCCC1 |  |  |  |  |  |  |  |  |  |  |  | 98 | 103 | 110 | 90.7 | 88.1 | 79.7 | 34.5 | 15.2 | 18.8 | 33.5 | 3.48 | 111 | 104 | 107 | 103 | 99.5 | 92.6 | 95.1 | 20.3 | 27.2 | 34.6 | 9.06
CC(=O)CC(C1=CC=CC=C1)C/2=C(O)/C3=CC=CC=C3OC2=O (stereo unspecified) | 106 | 112 | 108 | 117 | 111 | 125 | 123 | 120 | 113 | 118 | 123 | 105 | 120 | 130 | 128 | 130 | 132 | 132 | 127 | 128 | 132 | 124 | 106 | 122 | 116 | 125 | 128 | 127 | 125 | 121 | 132 | 132 | 129
CCOc1cc(N)c(Cl)cc1C(=O)NCC1CN(Cc2ccc(F)cc2)CCO1 (stereo unspecified) | 104 | 110 | 106 | 110 | 110 | 111 | 109 | 100 | 119 | 112 | 109 | 107 | 116 | 106 | 112 | 109 | 115 | 115 | 115 | 115 | 119 | 112 | 99.3 | 106 | 106 | 102 | 108 | 117 | 107 | 112 | 106 | 105 | 104
[NH2][Pt]([NH2])([Cl])[Cl] | 99.2 | 105 | 95.1 | 90.3 | 102 | 96 | 97.6 | 98.2 | 101 | 98.2 | 105 | 86.2 | 92.8 | 95.6 | 98 | 101 | 101 | 90.7 | 94.3 | 89 | 90.8 | 95.5 | 88.4 | 94.6 | 85.2 | 92 | 91.1 | 95.6 | 92.2 | 87.6 | 98.8 | 88.4 | 85.2
COc1cc(Nc2ncc(F)c(Nc3ccc4c(n3)NC(=O)C(C)(C)O4)n2)cc(OC)c1OC | 107 | 112 | 120 | 114 | 122 | 118 | 129 | 101 | 44.8 | 4.38 | 4.34 | 114 | 107 | 126 | 112 | 119 | 126 | 113 | 114 | 62.3 | 5.34 | 5.36 | 110 | 122 | 113 | 122 | 121 | 121 | 137 | 112 | 62.4 | 5.87 | 5.61
CCc1c(C(=O)C(N)=O)c2c(OCC(=O)O)cccc2n1Cc1ccccc1 | 105 | 112 | 112 | 105 | 107 | 111 | 106 | 111 | 103 | 107 | 99.5 | 102 | 101 | 102 | 104 | 105 | 98.1 | 96.5 | 99.4 | 94.8 | 93.6 | 95.3 | 99.4 | 107 | 102 | 98.4 | 99.9 | 94.4 | 91.8 | 97.3 | 92.3 | 95.8 | 91.3
Cc1nccn1CC1CCc2c(c3ccccc3n2C)C1=O (stereo unspecified) | 124 | 125 | 121 | 128 | 127 | 127 | 111 | 106 | 103 | 112 | 108 |  |  |  |  |  |  |  |  |  |  |  | 115 | 124 | 124 | 125 | 126 | 112 | 117 | 118 | 116 | 114 | 105
C\C1=C\N([C@H]2C[C@H](N=[N+]=[N-])[C@@H](CO)O2)C(=O)NC1=O | 101 | 108 | 107 | 120 | 111 | 111 | 111 | 120 | 115 | 23.2 | 15.1 | 99.8 | 120 | 122 | 111 | 116 | 116 | 121 | 121 | 119 | 34.4 | 25.3 | 97.1 | 109 | 112 | 101 | 113 | 111 | 116 | 110 | 103 | 79.9 | 62
OC(=O)\C1=C\N(C2=CC=C(F)C=C2)C3=C(C=C(F)C(=C3)N4CCNCC4)C1=O | 121 | 116 | 112 | 124 | 124 | 117 | 114 | 115 | 108 | 103 | 91 | 126 | 118 | 118 | 120 | 117 | 113 | 112 | 121 | 117 | 99.1 | 92.1 | 119 | 111 | 115 | 115 | 104 | 114 | 111 | 102 | 108 | 91.5 | 87.2
c1cc(CN2CCCNCCNCCCNCC2)ccc1CN1CCCNCCNCCCNCC1 | 84 | 90.4 | 96.5 | 10.2 | 101 | 104 | 109 | 102 | 102 | 116 | 117 | 80.6 | 90.8 | 95.2 | 12.9 | 101 | 97.6 | 101 | 103 | 99 | 111 | 106 | 86.3 | 93.9 | 92.9 | 24.9 | 94.9 | 99.6 | 101 | 101 | 103 | 96.5 | 103
Cc1cccc(C#Cc2ccccc2)n1 | 120 | 128 | 124 | 124 | 125 | 122 | 112 | 121 | 113 | 117 | 105 |  |  |  |  |  |  |  |  |  |  |  |  |  |  |  |  |  |  |  |  |  | 
CC(C)Nc1cc(C(F)(F)F)cc2nc(NC(=O)c3cccnc3)nn12 | 113 | 115 | 117 | 116 | 108 | 107 | 108 | 10.1 | 12.6 | 14.6 | 33.5 |  |  |  |  |  |  |  |  |  |  |  | 121 | 115 | 113 | 113 | 116 | 114 | 111 | 28.2 | 24.1 | 24.9 | 37
NC(=O)c1ncn([C@@H]2O[C@H](CO)[C@@H](O)[C@H]2O)n1 | 122 | 120 | 102 | 109 | 110 | 118 | 116 | 111 | 96.3 | 82 | 76.1 | 116 | 121 | 115 | 123 | 122 | 103 | 112 | 104 | 88.3 | 79.4 | 62.8 | 115 | 107 | 123 | 115 | 120 | 100 | 106 | 105 | 82.4 | 69.3 | 62.5
CN1CCC(CC1)COC2=CN=C(N=C2)C3=CC(=CC=C3)CN4/N=C(\C=C/C4=O)C5=CC(=CC=C5)C#N | 103 | 112 | 112 | 114 | 119 | 112 | 114 | 123 | 113 | 112 | 105 | 107 | 113 | 111 | 102 | 122 | 118 | 118 | 111 | 123 | 112 | 113 | 117 | 112 | 119 | 112 | 130 | 123 | 131 | 120 | 118 | 121 | 122
O=C(O)c1ccc(-n2nc(-c3ccccc3O)nc2-c2ccccc2O)cc1 | 96.8 | 114 | 104 | 107 | 104 | 108 | 108 | 99.9 | 82 | 70 | 48.9 | 82.8 | 94.8 | 107 | 99.8 | 102 | 104 | 101 | 104 | 73.3 | 53.3 | 29.3 | 86.7 | 103 | 105 | 96.2 | 95.5 | 102 | 102 | 96.7 | 79.7 | 55.7 | 22.2
